Paper PMC12439480, “Dimeric CCK2R radiotheranostic tracers synergize with mTOR inhibition for enhanced tumor therapy” (Theranostics, 2025)
Numbered stars: 1 amine (or outer) side, 2 acyl side, 3 side chain; on linkers, the order of the positions; unused ones are H or OH. Square brackets hold non-standard residues; d marks the D form. Side chains are listed from the residue outwards. Peptide text beside a SMILES is read from it. * marks the point of attachment. DOTA = O=C(O)CN1CCN(CC(=O)O)CCN(CC(=O)*)CCN(CC(=O)O)CC1; d(γGlu) = O=C(O)[C@@H](CCC(=O)[*:2])N[*:1]; 1Nal = N[C@@H](Cc1cccc2ccccc12)C(=O)O; NMeNle = CCCC[C@H](NC)C(=O)O; PEG4 = NCCOCCOCCOCCOCCC(=O)O

Experiments:
[1] = set-up: species or system KM mice; settings: mouse, in vivo, iv
Procedure: To evaluate the clearance rates of [^68Ga]Ga-DOTA-CCK2R-dimer and [^68Ga]Ga-DOTA-CCK-66 from the blood, a pharmacokinetic study was conducted in male KM mice (4-6 weeks old, 18-20 g, n = 5/group). Each mouse received 3.7 MBq of radiotracer via tail vein injection, corresponding to approximately 120 pmol of [^68Ga]Ga-DOTA-CCK2R-dimer or 210 pmol of [^68Ga]Ga-DOTA-CCK-66. Blood samples were collected from the tail vein into preweighed capillary tubes at 1, 3, 5, 10, 15, 30, 60, 90, 120, and 150 min post-injection. The radioactivity of the blood samples was measured using a γ-counter, and the percent of injected dose per gram of tissue (%ID/g) was calculated. Additionally, we assessed the in vivo stability of [^177Lu]Lu-DOTA-CCK2R-dimer. Mice were intravenously injected with 7.4 MBq (≈ 240 pmol) of [^177Lu]Lu-DOTA-CCK2R-dimer (dissolved in 200 μL of saline; n = 3/group). Urine samples were collected at 1, 4, and 24 hours post-injection, then diluted, filtered through a 0.22 μm membrane, and analyzed by radio-HPLC.
All animal studies were approved by the Ethics Committee of Fudan University […]
Shanghai Cancer Center (No. FUSCC-IACUC- S2023- 0003). […]
Pharmacokinetics in Normal Mice
F or the pharmacokinetics study, […] male KM mice (4 - 6 weeks old, weighing 18 - 20 g) were administered either [68Ga]Ga-D O TA -CCK2R-dimer or [68Ga]Ga-D O TA -CCK- 66 (3.7 MBq per mouse, n = 5/group) via tail vein injection.
Blood samples were collected from the tail vein using pre-weighed capillary tubes at […]
Radioactivity levels were measured using a gamma counter, with decay correction applied based on the injection time. The percentage of injected dose per gram of tissue (%ID/g) was calculated for each time point. […]

AR42J tumor-bearing mice = test: in vivo; set-up: species or system BALB/c nude mice; settings: mouse, 1 h
Procedure: To complement the imaging studies, biodistribution experiments were performed. AR42J tumor-bearing mice were intravenously injected with 3.7 MBq of [^68Ga]Ga-DOTA-CCK2R-dimer (≈ 120 pmol) or [^68Ga]Ga-DOTA-CCK-66 (≈ 210 pmol) (dissolved in 200 μL of saline; n = 3/group). The mice were sacrificed at 30, 60, and 120 min post-injection, and the tissues of interest were excised, weighed, and analyzed for radioactivity using a γ-counter. For blocking studies, a 400-fold excess of the lead compound was co-administered, and the mice were sacrificed at 1 h post-injection.
All animal studies were approved by the Ethics Committee of Fudan University
Shanghai Cancer Center (No. FUSCC-IACUC- S2023- 0003). Five-week-old female
BALB/c nude mice were purchased from Shanghai SLAC Laboratory Animal
Company. To establish cell-derived xenograft (CDX) models, 1 × 10⁶ AR42J cells
(100 μL) were subcutaneously inoculated into the right shoulder of each mouse. […]

## CCCC[C@@H](C(=O)N[C@@H](CC(=O)O)C(=O)N[C@@H](Cc1cccc2ccccc12)C(N)=O)N(C)C(=O)[C@H](Cc1c[nH]c2ccccc12)NC(=O)CCOCCOCCOCCOCCNC(=O)CC[C@@H](NC(=O)CC[C@H](NC(=O)CN1CCN(CC(=O)O)CCN(CC(=O)O)CCN(CC(=O)O)CC1)C(=O)N[C@H](CCC(=O)NCCOCCOCCOCCOCCC(=O)N[C@@H](Cc1c[nH]c2ccccc12)C(=O)N(C)[C@@H](CCCC)C(=O)N[C@@H](CC(=O)O)C(=O)N[C@@H](Cc1cccc2ccccc12)C(N)=O)C(=O)O)C(=O)O [[68Ga]Ga-DOTA-CCK2R-dimer] [metal not drawn] ({DOTA}-E([d(γGlu)-PEG4-Trp-NMeNle-Asp-1Nal-NH2])[d(γGlu)][PEG4]W[NMeNle]D[1Nal]-NH2)
[1]
  t1/2α: 37.8 s
AR42J tumor-bearing mice
  Bladder uptake: 0.99 ± 0.77 %ID/g
  Heart uptake: 0.2 ± 0.15 %ID/g
  Kidney uptake: 12.32 ± 8.97 %ID/g
  Liver uptake: 3.88 ± 2.47 %ID/g
